Values joined by “and” are separate entries in the source; they are usually repeats but may differ in a detail not shown here. Identical values can stand only once.
Experiments:
Assay type in all cases: cell-based
Gaeumannomyces graminis = Gaeumannomyces graminis growth inhibition, microtiter plate, photometric
Protocol: Mycelial fragments of the fungus from cryogenic storage were directly mixed into nutrient broth (potato dextrose broth). After placing a (DMSO) solution of the test compounds into a microliter plate (96-well format) the nutrient broth containing the fungal spores was added.

Botrvtis cinerea = Botrvtis cinerea (Gray Mould) growth inhibition, microtiter plate, photometric; settings: alone
Protocol: Botrvtis cinerea (Gray Mould):
(§1) Conidia of the fungus from cryogenic storage were directly mixed into nutrient broth (potato dextrose broth). After placing a (DMSO) solution of the test compounds into a microtiter plate (96-well format) the nutrient broth containing the fungal spores was added.

Septoria tritici = Septoria tritici (Leaf Blotch) growth inhibition, microtiter plate, photometric; settings: for AVERAGE DEAD IN %: alone; for AVERAGE DEAD IN % COMPOUND IV: COMPOUND IV alone; for AVERAGE DEAD IN % Chlorothalonil: Chlorothalonil alone
Protocol: Septoria tritici (Leaf Blotch):
as §1

[1] = system: Mycosphaerella arachidis (syn. Cercospora arachidicola); assay: Mycosphaerella arachidis (Brown Leaf Spot of Groundnut) growth inhibition, microtiter plate, photometric; settings: alone
Protocol: Mycosphaerella arachidis (syn. Cercospora arachidicola), Brown Leaf Spot of Groundnut (Peanut):
as §1

Fusarium culmorum = Fusarium culmorum (Root Rot) growth inhibition, microtiter plate, photometric
Protocol: Fusarium culmorum (Root Rot):
as §1

Pythium ultimum = Pythium ultimum (Damping Off) growth inhibition, microtiter plate, photometric
Protocol: Pythium ultimum (Damping Off):
Mycelial fragments of the fungus, prepared from a fresh liquid culture, were directly mixed into nutrient broth (potato dextrose broth). After placing a (DMSO) solution of the test compounds into a microtiter plate (96-well format) the nutrient broth containing the fungal spores was added.

Rhizoctonia solani = Rhizoctonia solani (Foot Rot, Damping-Off) growth inhibition, microtiter plate, photometric
Protocol: Rhizoctonia solani (Foot Rot, Damping-Off):
Mycelial fragments of the fungus from cryogenic storage were directly mixed into nutrient broth (potato dextrose broth). After placing a (DMSO) solution of the test compounds into a microtiter plate (96-well format) the nutrient broth containing the fungal spores was added.

[2] = system: Glomerella lagenarium (syn. Colletotrichum lagenarium); assay: Glomerella lagenarium (Anthracnose of Cucurbits) growth inhibition, microtiter plate, photometric; settings: alone
Protocol: Glomerella lagenarium (syn. Colletotrichum lagenarium), Anthracnose of Cucurbits:
as §1

**Q.** Which “AVERAGE DEAD IN %” value (Gaeumannomyces graminis; single compound at 0.25 ppm AI) does the source give for `COC(c1ccc(Cl)cc1Cl)C(C)NC(=O)c1cn(C)nc1C(F)F` (centres unmarked) [COMPOUND IV] here?
**A.** 0%

**Q.** And the “AVERAGE DEAD IN %” value (Gaeumannomyces graminis; single compound at 0.5 ppm AI)?
**A.** 0%

**Q.** What about the “AVERAGE DEAD IN %” value (Gaeumannomyces graminis; single compound at 1 ppm AI) of the same compound?
**A.** 0%

**Q.** What about the “AVERAGE DEAD IN %” value (Botrvtis cinerea; 0.03125 ppm AI) of the same compound?
**A.** 0%

**Q.** And the “AVERAGE DEAD IN %” value (Botrvtis cinerea; 0.0625 ppm AI)?
**A.** 20%

**Q.** What about the “AVERAGE DEAD IN %” value (Botrvtis cinerea; 0.125 ppm AI) of the same compound?
**A.** 20%

**Q.** What about the “AVERAGE DEAD IN %” value (Botrvtis cinerea; 0.25 ppm AI) of the same compound?
**A.** 50%

**Q.** And the “AVERAGE DEAD IN %” value (Botrvtis cinerea; 0.5 ppm AI)?
**A.** 70%

**Q.** What about the “AVERAGE DEAD IN %” value (Botrvtis cinerea; 1 ppm AI) of the same compound?
**A.** 90%

**Q.** And the “AVERAGE DEAD IN %” value (Septoria tritici; 0.125 ppm AI)?
**A.** 20%

**Q.** And the “AVERAGE DEAD IN %” value (Septoria tritici; 0.25 ppm AI)?
**A.** 90%

**Q.** And the “AVERAGE DEAD IN % COMPOUND IV” value (Septoria tritici; 0.25 ppm AI)?
**A.** 70% and 90%

**Q.** What about the “AVERAGE DEAD IN % COMPOUND IV” value (Septoria tritici; 0.5 ppm AI) of the same compound?
**A.** 90% and 100%

**Q.** What about the “AVERAGE DEAD IN %” value ([1]; 0.0625 ppm AI) of the same compound?
**A.** 20%

**Q.** And the “AVERAGE DEAD IN %” value ([1]; 0.125 ppm AI)?
**A.** 90%

**Q.** What about the “AVERAGE DEAD IN %” value ([1]; 0.125 PPM AI) of the same compound?
**A.** 90%

**Q.** And the “AVERAGE DEAD IN %” value (Fusarium culmorum; alone, 1 PPM AI)?
**A.** 20%

**Q.** And the “AVERAGE DEAD IN %” value (Fusarium culmorum; alone, 2 PPM AI)?
**A.** 50%

**Q.** And the “AVERAGE DEAD IN %” value (Fusarium culmorum; single compound, 0.5 PPM AI, 48 hrs, 24° C.)?
**A.** 0%

**Q.** What about the “AVERAGE DEAD IN %” value (Fusarium culmorum; single compound, 1 PPM AI, 48 hrs, 24° C.) of the same compound?
**A.** 20%

**Q.** And the “AVERAGE DEAD IN %” value (Fusarium culmorum; single compound, 2 PPM AI, 48 hrs, 24° C.)?
**A.** 50%

**Q.** How did the “AVERAGE DEAD IN %” value (Pythium ultimum; single compound at 0.25 ppm AI) turn out when `N#Cc1c(Cl)c(Cl)c(Cl)c(C#N)c1Cl` [Chlorothalonil, reference compound] was run?
**A.** 0%

**Q.** What about the “AVERAGE DEAD IN %” value (Pythium ultimum; single compound at 0.5 ppm AI) of the same compound?
**A.** 0%

**Q.** What about the “AVERAGE DEAD IN %” value (Pythium ultimum; single compound at 1 ppm AI) of the same compound?
**A.** 0%

**Q.** And the “AVERAGE DEAD IN %” value (Rhizoctonia solani; applied alone, 0.5 ppm AI)?
**A.** 70%

**Q.** And the “AVERAGE DEAD IN %” value (Rhizoctonia solani; applied alone, 1 ppm AI)?
**A.** 90%

**Q.** And the “AVERAGE DEAD IN %” value (Rhizoctonia solani; single compound at 1 ppm AI)?
**A.** 0%

**Q.** What about the “AVERAGE DEAD IN %” value (Rhizoctonia solani; single compound at 2 ppm AI) of the same compound?
**A.** 0%

**Q.** And the “AVERAGE DEAD IN %” value (Gaeumannomyces graminis; single compound at 0.25 ppm AI)?
**A.** 0%

**Q.** And the “AVERAGE DEAD IN %” value (Gaeumannomyces graminis; single compound at 1 ppm AI)?
**A.** 50% and 100% and 90%

**Q.** And the “AVERAGE DEAD IN %” value (Gaeumannomyces graminis; single compound at 2 ppm AI)?
**A.** 90% and 100%

**Q.** And the “AVERAGE DEAD IN %” value ([2]; 0.25 ppm AI)?
**A.** 50% and 90%

**Q.** What about the “AVERAGE DEAD IN %” value ([2]; 0.5 ppm AI) of the same compound?
**A.** 70%

**Q.** And the “AVERAGE DEAD IN %” value (Septoria tritici; 0.25 ppm AI)?
**A.** 0%

**Q.** What about the “AVERAGE DEAD IN %” value (Septoria tritici; 0.5 ppm AI) of the same compound?
**A.** 50%

**Q.** What about the “AVERAGE DEAD IN % Chlorothalonil” value (Septoria tritici; 0.03125 ppm AI) of the same compound?
**A.** 0%

**Q.** What about the “AVERAGE DEAD IN % Chlorothalonil” value (Septoria tritici; 0.0625 ppm AI) of the same compound?
**A.** 70%

**Q.** What about the “AVERAGE DEAD IN % Chlorothalonil” value (Septoria tritici; 0.25 ppm AI) of the same compound?
**A.** 20%

**Q.** And the “AVERAGE DEAD IN %” value (Septoria tritici; 1 ppm AI)?
**A.** 70%

**Q.** What about the “AVERAGE DEAD IN %” value ([1]; 0.125 ppm AI) of the same compound?
**A.** 20%

**Q.** What about the “AVERAGE DEAD IN %” value ([1]; 0.5 ppm AI) of the same compound?
**A.** 70%

**Q.** And the “AVERAGE DEAD IN %” value ([1]; 0.25 PPM AI)?
**A.** 20%

**Q.** What about the “AVERAGE DEAD IN %” value ([1]; 0.5 PPM AI) of the same compound?
**A.** 100% and 70%

**Q.** What about the “AVERAGE DEAD IN %” value (Fusarium culmorum; alone, 0.5 PPM AI) of the same compound?
**A.** 0%
